The target in test [1] is Gppcp-bound recombinant K-Ras4B G12C mutant protein (amino acids 1-169, C51S/C80L/C118S) (Homo sapiens, UniProt P01116, C118S/C51S/C80L/G12C). The experiment in a line: KRASG12C binding assay (LC-MS compound binding rate). Conditions: test compound final concentration 0.5 μM, 25° C., 1 hour. The essentials: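 Gppcp-bound K-Ras4B G12C (aa 1-169, C51S/C80L/C118S) at 50 nM in 1×TBS, 0.1 mM TCEP, 0.25 mM MgCl2, 50 μM Gppcp was incubated 1 hour at 25° C with compound at 0.5 μM final. Intact-protein LC-MS gave binding rate as single-adduct signal over total KRAS signal, graded A (≥80%) to E (<20%).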

In test [2] the target is T1, GMPPNP-bound KRAS G12C protein and cRAF RAS-binding domain (cRAF-RBD) (Homo sapiens, UniProt P01116, G12C).
T1 construct: made in house; host or cells: E. coli
As to the kind of experiment: Inhibitory activity on interaction between KRAS G12C and cRAF (Alpha technology). In kind it is biochemical. Conditions: then cRAF-RBD, Alpha signal. The essentials: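 GMPPNP-loaded His-KRAS G12C (aa 1-169) preincubated 1 h at 25 °C with compound (pH 7.5 Tris, 1 mM MgCl2, TCEP, Tween 20), then cRAF-RBD (aa 50-132) and Alpha reagents added for 1.5 h at RT. Inhibition scaled between DMSO (0%) and GDP-bound KRAS (100%); IC50 by curve fitting.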

The subject of test [3] is MIA PaCa-2 cells. As to the kind of experiment: Growth inhibition activity on KRAS-G12C mutant cell line (MIA PaCa-2). In kind it is cell-based. The settings on record: Homo sapiens, 72 h; MIA PaCa-2, 3-day culture, CellTiter-Glo 3D. As for the experimental part:
MIA PaCa-2 cells (given by Sumitomo Dainippon Pharma Co., Ltd.), which are a KRAS-G12C mutant human pancreas cancer cell line, were suspended in a 10% fetal bovine serum-containing RPMI1640 medium (manufactured by Fujifilm Wako Pure Chemical Corporation.). The cell suspension was seeded into each well of a 384-well U bottom microplate and cultured in an incubator containing 5% CO2 gas at 37° C. for 1 day. The compounds obtained in the “Preparation of Compounds” section were used as test compounds and were dissolved in DMSO, respectively, and each test compound was diluted with DMSO to give a concentration 500 times the final concentration. The resultant solution of the test compound in DMSO was diluted with the medium used for suspending cells and added to each well of the cell-culture plate to give a DMSO final concentration of 0.2%, followed by culture in an incubator containing 5% CO2 gas at 37° C. for another 3 days. The cell count after 3-day culture in the presence of the test compound was measured using CellTiter-Glo 3D Reagent (manufactured by Promega Corporation). All wells were added with CellTiter-Glo 3D Reagent and mixed for 10 minutes. 30 minutes after mixing, luminescence was measured by a plate reader. The growth inhibition rate was calculated from the following equation, and the concentration of the test compound at which 50% inhibition was achieved (IC50 (nM)) was determined. […] Growth Inhibition Rate (%)=(C−T)/(C)×100 • T: the emission intensity in a well into which a test compound was added. • C: the emission intensity in a well into which a test compound was not added.
In general terms: ATP-based viability assays read luminescence as a measure of living cells.

Where [4] appears, read: GMPPNP-bound KRAS G12C incubated with compound at 25° C. for 1 hour, read-out: IC50.

Read-outs that look alike come from different tables or passages of the source.

In general, IC50 refers to the concentration that inhibits the measured activity by half. For `CCc1nc2cc(-c3cccc4c3CCN4C(=O)c3ccc(NC(=O)/C=C/CN[C@H]4CC[C@H](N5CCCC5)CC4)c(C#N)c3)c(C(F)(F)F)cc2n1C` [Example 29, (E)-N-(2-cyano-4-(4-(2-ethyl-1-methyl-6-(trifluoromethyl)-1H-benzo[d]imidazol-5-yl)indoline-1-carbonyl)phenyl)-4-(((1r,4r)-4-(pyrrolidin-1-yl)cyclohexyl)amino)but-2-enamide], in test [1], the binding rate entry was “A (A binding rate of 80% or more is rated “A”)”. In addition, the IC50 in test [2] (setting [4]) is 95 nM; in test [3] it was 410 nM.
On the same counts, the results for `CCc1nc2cc(-c3cccc4c3CCN4C(=O)c3ccc(NC(=O)/C=C/CNC4CCN(C(C)C)CC4)c(C#N)c3)c(C(F)(F)F)cc2n1C` [Example 30, (E)-N-(2-cyano-4-(4-(2-ethyl-1-methyl-6-(trifluoromethyl)-1H-benzo[d]imidazol-5-yl)indoline-1-carbonyl)phenyl)-4-((1-isopropylpiperidin-4-yl)amino)but-2-enamide] are “A (A binding rate of 80% or more is rated “A”)”, 75 nM and 370 nM.
On the same counts, the results for `CO[C@H]1CC[C@H](NC/C=C/C(=O)Nc2ccc(C(=O)c3ccc4c(-c5cc6nc7n(c6cc5C(F)(F)F)CCC7)cccn34)cc2C#N)CC1` [Example 31, (E)-N-(2-cyano-4-(8-(7-(trifluoromethyl)-2,3-dihydro-1H-benzo[d]pyrrolo[1,2-a]imidazol-6-yl)indolizine-3-carbonyl)phenyl)-4-(((1r,4r)-4-methoxycyclohexyl)amino)but-2-enamide] are “A (A binding rate of 80% or more is rated “A”)”, 26 nM and 86 nM.
With `CCc1cc2c(cc1-c1cccc(NC(=O)c3ccc(NC(=O)/C=C/CN[C@H]4CC[C@H](OC)CC4)c(C#N)c3)c1)nc1n2CCC1` [Example 32, 3-cyano-N-(3-(7-ethyl-2,3-dihydro-1H-benzo[d]pyrrolo[1,2-a]imidazol-6-yl)phenyl)-4-((E)-4-(((1r,4r)-4-methoxycyclohexyl)amino)but-2-enamido)benzamide], the binding rate entry in test [1] was “B (a binding rate of 60% or more and less than 80% is rated “B”)”. For the same molecule, the half-maximal inhibitory concentration (IC50) turned out to be 27 nM in test [2] (setting [4]) and 310 nM in test [3].
Regarding `CCc1nc2cc(-c3cccn4c(C(=O)c5ccc(NC(=O)/C=C/CN[C@H]6CC[C@H](OC)CC6)c(C#N)c5)ccc34)c(C(F)(F)F)cc2n1C` [Example 33, (E)-N-(2-cyano-4-(8-(2-ethyl-1-methyl-6-(trifluoromethyl)-1H-benzo[d]imidazol-5-yl)indolizine-3-carbonyl)phenyl)-4-(((1r,4r)-4-methoxycyclohexyl)amino)but-2-enamide], the binding rate result in test [1] is listed as “A (A binding rate of 80% or more is rated “A”)”. The IC50 in test [2] (setting [4]) amounted to 45 nM; in test [3], 48 nM.
With `CO[C@H]1CC[C@H](NC/C=C/C(=O)Nc2ccc(C(=O)Nc3cccc(-c4cc5nc6n(c5cc4C(F)(F)F)CCC6)n3)cc2C#N)CC1` [Example 34, 3-cyano-4-((E)-4-(((1r,4r)-4-methoxycyclohexyl)amino)but-2-enamido)-N-(6-(7-(trifluoromethyl)-2,3-dihydro-1H-benzo[d]pyrrolo[1,2-a]imidazol-6-yl)pyridin-2-yl)benzamide], the binding rate result in test [1] is listed as “A (A binding rate of 80% or more is rated “A”)”. Besides, the concentration for half-maximal inhibition (IC50) is 31 nM in test [2] (setting [4]) and 92 nM in test [3].
For `CO[C@H]1CC[C@H](NC/C=C/C(=O)Nc2ccc(C(=O)c3c[nH]c4c(-c5cc6nc7n(c6cc5C(F)(F)F)CCC7)cccc34)cc2C#N)CC1` [Example 35, (E)-N-(2-cyano-4-(7-(7-(trifluoromethyl)-2,3-dihydro-1H-benzo[d]pyrrolo[1,2-a]imidazol-6-yl)-1H-indole-3-carbonyl)phenyl)-4-(((1r,4r)-4-methoxycyclohexyl)amino)but-2-enamide] the same measures were “A (A binding rate of 80% or more is rated “A”)”, 19 nM and 39 nM.
On the same counts, the results for `CO[C@H]1CC[C@H](NC/C=C/C(=O)Nc2ccc(C(=O)c3ccc4c(-c5cc6ncn(C)c6cc5C(F)F)cccn34)cc2C#N)CC1` [Example 36, (E)-N-(2-cyano-4-(8-(6-(difluoromethyl)-1-methyl-1H-benzo[d]imidazol-5-yl)indolizine-3-carbonyl)phenyl)-4-(((1r,4r)-4-methoxycyclohexyl)amino)but-2-enamide] are “A (A binding rate of 80% or more is rated “A”)”, 23 nM and 70 nM.
With `CCN(CC)[C@H]1CC[C@H](NC/C=C/C(=O)Nc2ccc(C(=O)Nc3cccc(-c4cc5nc6n(c5cc4C(F)(F)F)CCC6)n3)cc2C#N)CC1` [Example 37, 3-cyano-4-((E)-4-(((1r,4r)-4-(diethylamino)cyclohexyl)amino)but-2-enamido)-N-(6-(7-(trifluoromethyl)-2,3-dihydro-1H-benzo[d]pyrrolo[1,2-a]imidazol-6-yl)pyridin-2-yl)benzamide], the binding rate entry in test [1] is reported as “A (A binding rate of 80% or more is rated “A”)”. In addition, the half-maximal inhibitory concentration (IC50) turned out to be 12 nM in test [2] (setting [4]) and 550 nM in test [3].
For the molecule `CO[C@H]1CC[C@H](NC/C=C/C(=O)Nc2ccc(C(=O)c3cn(C)c4c(-c5cc6ncn(C)c6cc5C(F)(F)F)cccc34)cc2C#N)CC1` [Example 38, (E)-N-(2-cyano-4-(1-methyl-7-(1-methyl-6-(trifluoromethyl)-1H-benzo[d]imidazol-5-yl)-1H-indole-3-carbonyl)phenyl)-4-(((1r,4r)-4-methoxycyclohexyl)amino)but-2-enamide], in test [1], the binding rate result was “A (A binding rate of 80% or more is rated “A”)”. Moreover, the IC50 in test [2] (IC50, GMPPNP-bound KRAS G12C incubated with compound at 25° C. for 1 hour) is 67 nM; in test [3] it was 88 nM.
As to `COc1cccc(Cl)c1-c1cccn2c(C(=O)c3ccc(NC(=O)/C=C/CN[C@H]4CC[C@H](OC)CC4)c(C#N)c3)ccc12` [Example 41, (E)-N-(4-(8-(2-chloro-6-methoxyphenyl)indolizine-3-carbonyl)-2-cyanophenyl)-4-(((1r,4r)-4-methoxycyclohexyl)amino)but-2-enamide], in test [1], the binding rate result is “A (A binding rate of 80% or more is rated “A”)”. The IC50 was 85 nM in test [2] (setting [4]) and 370 nM in test [3].
For `Cn1cnc2cc(-c3cccn4c(C(=O)c5ccc(NC(=O)/C=C/[C@@H]6CCCN6)c(C#N)c5)ccc34)c(C(F)(F)F)cc21` [Example 44, (S,E)-N-(2-cyano-4-(8-(1-methyl-6-(trifluoromethyl)-1H-benzo[d]imidazol-5-yl)indolizine-3-carbonyl)phenyl)-3-(pyrrolidin-2-yl) acrylamide] the same measures were “A (A binding rate of 80% or more is rated “A”)”, 61 nM and 350 nM.
On the same counts, the results for `Cn1cnc2cc(-c3cccn4c(C(=O)c5cc(F)c(NC(=O)/C=C/CNC(C)(C)C)c(F)c5)ccc34)c(C(F)(F)F)cc21` [Example 49, (2E)-4-(tert-Butylamino)-N-(2,6-difluoro-4-{8-[1-methyl-6-(trifluoromethyl)-1H-1,3-benzodiazol-5-yl]indolizine-3-carbonyl}phenyl)but-2-enamide] are “A (A binding rate of 80% or more is rated “A”)”, 31 nM and 75 nM.
As for `Cn1cnc2cc(-c3cccn4c(C(=O)c5ccc(NC(=O)/C=C/CNC(C)(C)C)c(F)c5)ccc34)c(C(F)(F)F)cc21` [Example 51, (2E)-4-(tert-Butylamino)-N-(2-fluoro-4-{8-[1-methyl-6-(trifluoromethyl)-1H-1,3-benzodiazol-5-yl]indolizine-3-carbonyl}phenyl)but-2-enamide], the binding rate entry in test [1] is “B (a binding rate of 60% or more and less than 80% is rated “B”)”. Moreover, the IC50 in test [2] (setting [4]) was 95 nM; in test [3], 170 nM.
